Source: patent US8383637B2, “2-amino-quinazoline derivatives useful as inhibitors of β-secretase (BACE)” (Jansssen Pharmaceutica N.V., priority 2004, dated 2013)

Target: T1, β-secretase(BACE) (Homo sapiens, UniProt P56817)
T1 construct: purchased Panvera
Experiment: BACE FS1% Inhibition Assay
Format: biochemical
Conditions: FS1 substrate; for % Inhibition (FS) 0.3 μM: 0.3 μM test compound; for % Inhibition (FS) 1 μM: 1 μM test compound; for % Inhibition (FS) 3 μM: 3 μM test compound
Experimental: BACE FS1% Inhibition Assay The following reagents were used in this assay: sodium acetate, PEG8000 (Sigma), DMSO, HEPES, FS1 substrate [[…]] […] The FS1-substrate stock solution was prepared in DMSO as a 10 mg/mL solution. The FS1-substrate working solution was prepared by diluting the 10 mg/mL stock solution with substrate assay buffer to a final concentration of 300 μg/mL. The β-secretase (BACE) working solution was prepared by diluting a 0.83 mg/mL BACE stock solution with enzyme assay buffer to a final concentration of 4 μg/mL. Test compounds were dissolved in DMSO to 10 mM. […] The screening procedure for this assay was as follows: 15 μL of BACE working solution was pipetted into each well of a 96-well plate. To each well was then pipetted 2 μL of test compound at the selected concentration. Test compound and BACE were then mixed with a pipettor and incubated for 20 min at room temperature. To each well was then added 10 μL of the FS1 substrate working solution. The plates were then incubated for 1 hour at room temperature. […] The procedure for the blank was as follows. 15 μL of assay buffer was pipetted into each well to be used as a blank control. To each well was then added 2 μL of vehicle and 10 μL of FS1-substrate working solution. The plates were then incubated for 1 hour at room temperature. […] The procedure for the positive control was as follows: 15 μL of BACE working solution was pipetted into each well to be used as a positive control. To each well was then pipetted 2 μL of vehicle. Vehicle and BACE were then mixed with a pipettor and incubated for 20 min at room temperature. To each well was then added 10 μL of the FS1 substrate working solution. The plates were then incubated for 1 hour at room temperature. […] For test compounds, % inhibition was determined at each concentration as follows: [formula]

T1 sequence (P56817 46-501): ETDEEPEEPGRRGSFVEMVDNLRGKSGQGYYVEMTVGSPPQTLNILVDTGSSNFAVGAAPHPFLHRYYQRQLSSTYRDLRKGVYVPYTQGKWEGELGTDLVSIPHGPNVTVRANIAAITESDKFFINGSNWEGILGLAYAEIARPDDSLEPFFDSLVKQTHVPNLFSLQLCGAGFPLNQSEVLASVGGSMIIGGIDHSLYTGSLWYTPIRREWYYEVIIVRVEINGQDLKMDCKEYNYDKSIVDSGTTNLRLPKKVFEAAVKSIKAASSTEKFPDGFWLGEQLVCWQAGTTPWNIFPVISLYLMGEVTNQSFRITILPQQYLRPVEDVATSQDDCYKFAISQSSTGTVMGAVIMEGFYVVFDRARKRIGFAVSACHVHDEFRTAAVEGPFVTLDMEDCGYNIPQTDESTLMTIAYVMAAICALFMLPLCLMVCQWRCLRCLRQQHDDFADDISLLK

Row | SMILES | % Inhibition (FS) 0.3 μM [%] | % Inhibition (FS) 1 μM [%] | % Inhibition (FS) 3 μM [%]
1 | CC1CCC(NC(=O)c2cccc(CN3Cc4cc(Oc5ccccc5)ccc4N=C3N)c2)CC1 (stereo not drawn) [Compound 213] | <30 | <30 | <30
2 | COc1cccc(C(=O)NCCN2Cc3cc(Oc4ccccc4)ccc3N=C2N)c1 [Compound 217] | <30 | <30 | 56
3 | CN1CCCC1CCNC(=O)c1cccc(CN2Cc3cc(Oc4ccccc4)ccc3N=C2N)c1 (stereo not drawn) [Compound 222] | <30 | <30 | <30
4 | CN1CCC(N(C)C(=O)c2cccc(CN3Cc4cc(Oc5ccccc5)ccc4N=C3N)c2)CC1 [Compound 223] | <30 | <30 | <30
5 | CC(C)(C)OC(=O)Nc1cccc(CN2Cc3cc(Oc4ccccc4)ccc3N=C2N)c1 [Compound 224] | <30 | <30 | <30
6 | Cc1cc(C)cc(Oc2ccc3c(c2)CN(Cc2cccc(C(=O)N(C)C4CCCCC4)c2)C(N)=N3)c1 [Compound 228] | <30 | 49 | 40
7 | CC(=O)Nc1cccc(Oc2ccc3c(c2)CN(Cc2cccc(C(=O)N(C)C4CCCCC4)c2)C(N)=N3)c1 [Compound 229] | <30 | 35 | <30
8 | CN(C(=O)c1cccc(CN2Cc3cc(Oc4cccnc4)ccc3N=C2N)c1)C1CCCCC1 [Compound 230] | <30 | 33 | <30
9 | COc1ccccc1Oc1ccc2c(c1)CN(Cc1cccc(C(=O)N(C)C3CCCCC3)c1)C(N)=N2 [Compound 232] | <30 | <30 | 31
10 | CN(C(=O)c1cccc(CN2Cc3cc(Oc4ccc5c(c4)CCCC5)ccc3N=C2N)c1)C1CCCCC1 [Compound 233] | <30 | 32 | 36
11 | CN(C(=O)c1cccc(CN2Cc3cc(Oc4ccccc4-c4ccccc4)ccc3N=C2N)c1)C1CCCCC1 [Compound 234] | <30 | 57 | 43
12 | CN(C(=O)c1cccc(CN2Cc3cc(Oc4ccccc4CC(N)=O)ccc3N=C2N)c1)C1CCCCC1 [Compound 235] | <30 | 46 | <30
13 | CN(C(=O)c1cccc(CN2Cc3cc(Oc4cccc(Oc5ccccc5)c4)ccc3N=C2N)c1)C1CCCCC1 [Compound 236] | <30 | 37 | 49
14 | CC(C)(C)OC(=O)NCC(C1CCCCC1)N1Cc2cc(Oc3ccccc3)ccc2N=C1N (stereo not drawn) [Compound 257] | 67 | 105 | 111
15 | CN(C(=O)c1cccc(CN2Cc3cc(C=Cc4ccccc4)ccc3N=C2N)c1)C1CCCCC1 [Compound 266] | <30 | 34 | <30
16 | CN(C(=O)c1cccc(CN2Cc3cc(-c4ccc(C5CCCCC5)cc4)ccc3N=C2N)c1)C1CCCCC1 [Compound 267] | <30 | 39 | 38
17 | NC1=Nc2ccc(Oc3ccccc3)cc2CN1Cc1cccc(NC(=O)C2CCCCC2)c1 [Compound 286] | <30 | <30 | 36
18 | CC(C)(C)C(=O)Nc1cccc(CN2Cc3cc(Oc4ccccc4)ccc3N=C2N)c1 [Compound 290] | <30 | <30 | <30
19 | NC1=Nc2ccc(Oc3ccccc3)cc2CN1C(CNC(=O)C1CCCC1)C1CCCCC1 (stereo not drawn) [Compound 295] | 79 | 106 | 116
20 | NC1=Nc2ccc(Oc3ccccc3)cc2CN1C(CC(=O)NC1CCCCC1)c1ccccc1 (stereo not drawn) [Compound 299] | <30 | <30 | <30
21 | NC1=Nc2ccc(Oc3ccccc3)cc2CN1C(CC(=O)NC1CCCCC1)C1CCCCC1 (stereo not drawn) [Compound 300] | <30 | <30 | 77
22 | NC1=Nc2ccc(Oc3ccccc3)cc2CN1Cc1cccc(CNC(=O)C2CCCCC2)c1 [Compound 306] | <30 | <30 | 46
23 | NC1=Nc2ccc(Oc3ccccc3)cc2CN1Cc1cccc(CNC(=O)C(F)(F)F)c1 [Compound 307] | <30 | <30 | <30
24 | CN(C(=O)c1cccc(C(CC2CCCCC2)N2Cc3cc(Oc4ccccc4)ccc3N=C2N)c1)C1CCCCC1 (stereo not drawn) [Compound 310] | <30 | <30 | 57
25 | NC1=Nc2ccc(Oc3ccccc3)cc2CN1C(CNC(=O)C12CC3CC(CC(C3)C1)C2)C1CCCCC1 (stereo not drawn) [Compound 312] | 74 | 103 | 115
26 | CC(C)c1ccccc1Oc1ccc2c(c1)CN(C(CC(=O)NC1CCCCC1)C1CCCCC1)C(N)=N2 (stereo not drawn) [Compound 313] | <30 | <30 | 31
27 | NC1=Nc2ccc(Oc3ccccc3)cc2CN1C(CC(=O)NC1C2CC3CC(C2)CC1C3)C1CCCCC1 (stereo not drawn) [Compound 314] | <30 | 45 | 85
28 | CC(C)(C)OC(=O)NCc1cccc(CN2Cc3cc(Oc4ccccc4)ccc3N=C2N)c1 [Compound 315] | <30 | <30 | 33
